Reference: the NIST ThermoML archive (doi:10.1016/j.tca.2004.08.013)
± gives the expanded uncertainty stated by the source.

Legend:
[1] = 101.33 kPa, Liquid
[2] = xn = mol fraction of the nth substance listed; conditions: 101.3 kPa, Liquid

C1COCCO1 [1,4-dioxane]
mass density ([1]; 303.15 K): 1022.3 ± 0.3 kg/m3
viscosity ([1]; 303.15 K): 1.086 ± 0.018 mPa·s

CCCCN [1-butanamine]
mass density ([1]; 303.15 K): 728.65 ± 0.81 kg/m3
viscosity ([1]; 303.15 K): 0.444 ± 0.009 mPa·s
mass density ([1]; 313.15 K): 719.17 ± 0.82 kg/m3
viscosity ([1]; 313.15 K): 0.393 ± 0.008 mPa·s

CCC(C)=O [butanone]
mass density ([1]; 303.15 K): 799.69 ± 0.61 kg/m3
viscosity ([1]; 303.15 K): 0.365 ± 0.007 mPa·s

CCCCOC(C)=O [butyl ethanoate]
mass density ([1]; 303.15 K): 871.28 ± 0.48 kg/m3
viscosity ([1]; 303.15 K): 0.644 ± 0.011 mPa·s

Clc1ccccc1 [chlorobenzene]
mass density ([1]; 303.15 K): 1095.49 ± 0.45 kg/m3
viscosity ([1]; 303.15 K): 0.718 ± 0.012 mPa·s

CCCCNCCCC [dibutylamine]
mass density ([1]; 303.15 K): 752.28 ± 0.77 kg/m3
viscosity ([1]; 303.15 K): 0.758 ± 0.013 mPa·s
mass density ([1]; 313.15 K): 743.44 ± 0.78 kg/m3
viscosity ([1]; 313.15 K): 0.665 ± 0.012 mPa·s

CCCNCCC [dipropylamine]
mass density ([1]; 303.15 K): 731.21 ± 0.8 kg/m3
viscosity ([1]; 303.15 K): 0.512 ± 0.01 mPa·s
mass density ([1]; 313.15 K): 726.15 ± 3 kg/m3
viscosity ([1]; 313.15 K): 0.423 ± 0.008 mPa·s

CCOC(C)=O [ethyl acetate]
mass density ([1]; 303.15 K): 888.42 ± 0.45 kg/m3
viscosity ([1]; 303.15 K): 0.399 ± 0.008 mPa·s

O=[N+]([O-])c1ccccc1 [nitrobenzene]
mass density ([1]; 303.15 K): 1193.4 ± 0.63 kg/m3
viscosity ([1]; 303.15 K): 1.617 ± 0.025 mPa·s

CCCN [propan-1-amine]
mass density ([1]; 303.15 K): 706.1 ± 0.84 kg/m3
viscosity ([1]; 303.15 K): 0.353 ± 0.007 mPa·s
mass density ([1]; 313.15 K): 696.04 ± 0.86 kg/m3
viscosity ([1]; 313.15 K): 0.313 ± 0.007 mPa·s

ClC(Cl)(Cl)Cl [tetrachloromethane]
mass density ([1]; 303.15 K): 1574.78 ± 1.4 kg/m3
viscosity ([1]; 303.15 K): 0.852 ± 0.014 mPa·s
mass density ([1]; 313.15 K): 1555.02 ± 1.4 kg/m3
viscosity ([1]; 313.15 K): 0.76 ± 0.013 mPa·s

CCCCN(CCCC)CCCC [tributylamine]
mass density ([1]; 303.15 K): 770.21 ± 0.74 kg/m3
viscosity ([1]; 303.15 K): 1.167 ± 0.02 mPa·s
mass density ([1]; 313.15 K): 763.11 ± 0.75 kg/m3
viscosity ([1]; 313.15 K): 0.97 ± 0.017 mPa·s

ClC(Cl)Cl [trichloromethane]
mass density ([1]; 303.15 K): 1470.64 ± 1.2 kg/m3
viscosity ([1]; 303.15 K): 0.52 ± 0.009 mPa·s
mass density ([1]; 313.15 K): 1448.43 ± 1.1 kg/m3
viscosity ([1]; 313.15 K): 0.471 ± 0.009 mPa·s

CCN(CC)CC [triethylamine]
mass density ([1]; 303.15 K): 718.44 ± 0.82 kg/m3
viscosity ([1]; 303.15 K): 0.33 ± 0.007 mPa·s

CCCN(CCC)CCC [tripropylamine]
mass density ([1]; 303.15 K): 749.15 ± 0.78 kg/m3
viscosity ([1]; 303.15 K): 0.598 ± 0.011 mPa·s
mass density ([1]; 313.15 K): 740.41 ± 0.79 kg/m3
viscosity ([1]; 313.15 K): 0.538 ± 0.01 mPa·s

CCCN(CCC)CCC [tripropylamine] + ClC(Cl)(Cl)Cl
mass density ([2]; 303.15 K, x1 = 0.0103): 1558.08 ± 1.5 kg/m3
viscosity ([2]; 303.15 K, x1 = 0.0103): 0.848 ± 0.012 mPa·s
mass density ([2]; 303.15 K, x1 = 0.0203): 1542.01 ± 1.5 kg/m3
viscosity ([2]; 303.15 K, x1 = 0.0203): 0.84 ± 0.012 mPa·s
mass density ([2]; 303.15 K, x1 = 0.0304): 1526.35 ± 1.4 kg/m3
viscosity ([2]; 303.15 K, x1 = 0.0304): 0.829 ± 0.011 mPa·s
mass density ([2]; 303.15 K, x1 = 0.0398): 1511.85 ± 1.4 kg/m3
viscosity ([2]; 303.15 K, x1 = 0.0398): 0.819 ± 0.011 mPa·s
mass density ([2]; 303.15 K, x1 = 0.0497): 1496.93 ± 1.4 kg/m3
viscosity ([2]; 303.15 K, x1 = 0.0497): 0.811 ± 0.011 mPa·s
mass density ([2]; 303.15 K, x1 = 0.0606): 1480.86 ± 1.4 kg/m3
viscosity ([2]; 303.15 K, x1 = 0.0606): 0.802 ± 0.011 mPa·s
mass density ([2]; 303.15 K, x1 = 0.0695): 1468.02 ± 1.3 kg/m3
viscosity ([2]; 303.15 K, x1 = 0.0695): 0.795 ± 0.011 mPa·s
mass density ([2]; 303.15 K, x1 = 0.0786): 1455.03 ± 1.3 kg/m3
viscosity ([2]; 303.15 K, x1 = 0.0786): 0.788 ± 0.011 mPa·s
mass density ([2]; 303.15 K, x1 = 0.0893): 1440.17 ± 1.3 kg/m3
viscosity ([2]; 303.15 K, x1 = 0.0893): 0.78 ± 0.011 mPa·s
mass density ([2]; 313.15 K, x1 = 0.0103): 1538.54 ± 1.5 kg/m3
viscosity ([2]; 313.15 K, x1 = 0.0103): 0.754 ± 0.011 mPa·s
mass density ([2]; 313.15 K, x1 = 0.0203): 1522.71 ± 1.4 kg/m3
viscosity ([2]; 313.15 K, x1 = 0.0203): 0.747 ± 0.01 mPa·s
mass density ([2]; 313.15 K, x1 = 0.0304): 1507.24 ± 1.4 kg/m3
viscosity ([2]; 313.15 K, x1 = 0.0304): 0.739 ± 0.01 mPa·s
mass density ([2]; 313.15 K, x1 = 0.0398): 1492.94 ± 1.4 kg/m3
viscosity ([2]; 313.15 K, x1 = 0.0398): 0.733 ± 0.01 mPa·s
mass density ([2]; 313.15 K, x1 = 0.0497): 1478.28 ± 1.4 kg/m3
viscosity ([2]; 313.15 K, x1 = 0.0497): 0.726 ± 0.01 mPa·s
mass density ([2]; 313.15 K, x1 = 0.0606): 1462.46 ± 1.3 kg/m3
viscosity ([2]; 313.15 K, x1 = 0.0606): 0.718 ± 0.01 mPa·s
mass density ([2]; 313.15 K, x1 = 0.0695): 1449.76 ± 1.3 kg/m3
viscosity ([2]; 313.15 K, x1 = 0.0695): 0.712 ± 0.01 mPa·s
mass density ([2]; 313.15 K, x1 = 0.0786): 1437.01 ± 1.3 kg/m3
viscosity ([2]; 313.15 K, x1 = 0.0786): 0.706 ± 0.01 mPa·s
mass density ([2]; 313.15 K, x1 = 0.0893): 1422.3 ± 1.2 kg/m3
viscosity ([2]; 313.15 K, x1 = 0.0893): 0.699 ± 0.01 mPa·s

CCCN(CCC)CCC [tripropylamine] + ClC(Cl)Cl
mass density ([2]; 303.15 K, x1 = 0.0106): 1453.58 ± 1.3 kg/m3
viscosity ([2]; 303.15 K, x1 = 0.0106): 0.531 ± 0.008 mPa·s
mass density ([2]; 303.15 K, x1 = 0.0206): 1437.45 ± 1.3 kg/m3
viscosity ([2]; 303.15 K, x1 = 0.0206): 0.541 ± 0.008 mPa·s
mass density ([2]; 303.15 K, x1 = 0.032): 1419.7 ± 1.2 kg/m3
viscosity ([2]; 303.15 K, x1 = 0.032): 0.546 ± 0.008 mPa·s
mass density ([2]; 303.15 K, x1 = 0.0396): 1407.99 ± 1.2 kg/m3
viscosity ([2]; 303.15 K, x1 = 0.0396): 0.554 ± 0.008 mPa·s
mass density ([2]; 303.15 K, x1 = 0.0509): 1391.16 ± 1.2 kg/m3
viscosity ([2]; 303.15 K, x1 = 0.0509): 0.563 ± 0.008 mPa·s
mass density ([2]; 303.15 K, x1 = 0.0596): 1378.63 ± 1.1 kg/m3
viscosity ([2]; 303.15 K, x1 = 0.0596): 0.568 ± 0.008 mPa·s
mass density ([2]; 303.15 K, x1 = 0.0693): 1364.78 ± 1.1 kg/m3
viscosity ([2]; 303.15 K, x1 = 0.0693): 0.579 ± 0.008 mPa·s
mass density ([2]; 303.15 K, x1 = 0.0787): 1351.78 ± 1.1 kg/m3
viscosity ([2]; 303.15 K, x1 = 0.0787): 0.59 ± 0.009 mPa·s
mass density ([2]; 303.15 K, x1 = 0.0883): 1338.63 ± 1.1 kg/m3
viscosity ([2]; 303.15 K, x1 = 0.0883): 0.598 ± 0.009 mPa·s
mass density ([2]; 313.15 K, x1 = 0.0106): 1431.77 ± 1.3 kg/m3
viscosity ([2]; 313.15 K, x1 = 0.0106): 0.476 ± 0.007 mPa·s
mass density ([2]; 313.15 K, x1 = 0.0206): 1416.02 ± 1.2 kg/m3
viscosity ([2]; 313.15 K, x1 = 0.0206): 0.48 ± 0.007 mPa·s
mass density ([2]; 313.15 K, x1 = 0.032): 1398.73 ± 1.2 kg/m3
viscosity ([2]; 313.15 K, x1 = 0.032): 0.485 ± 0.007 mPa·s
mass density ([2]; 313.15 K, x1 = 0.0396): 1387.54 ± 1.2 kg/m3
viscosity ([2]; 313.15 K, x1 = 0.0396): 0.489 ± 0.007 mPa·s
mass density ([2]; 313.15 K, x1 = 0.0509): 1370.93 ± 1.1 kg/m3
viscosity ([2]; 313.15 K, x1 = 0.0509): 0.493 ± 0.007 mPa·s
mass density ([2]; 313.15 K, x1 = 0.0596): 1358.79 ± 1.1 kg/m3
viscosity ([2]; 313.15 K, x1 = 0.0596): 0.501 ± 0.008 mPa·s
mass density ([2]; 313.15 K, x1 = 0.0693): 1345.21 ± 1.1 kg/m3
viscosity ([2]; 313.15 K, x1 = 0.0693): 0.504 ± 0.008 mPa·s
mass density ([2]; 313.15 K, x1 = 0.0787): 1332.44 ± 1.1 kg/m3
viscosity ([2]; 313.15 K, x1 = 0.0787): 0.511 ± 0.008 mPa·s
mass density ([2]; 313.15 K, x1 = 0.0883): 1319.39 ± 1 kg/m3
viscosity ([2]; 313.15 K, x1 = 0.0883): 0.516 ± 0.008 mPa·s
